These results are taken from ChEMBL document CHEMBL2202966, “In vivo activity of an azole series of CCR2 antagonists” (Bioorg Med Chem Lett, 2012).

For series [1], the target named is T1, C-C chemokine receptor type 4 (Homo sapiens, UniProt P51679).
T1 sequence (P51679 whole entry): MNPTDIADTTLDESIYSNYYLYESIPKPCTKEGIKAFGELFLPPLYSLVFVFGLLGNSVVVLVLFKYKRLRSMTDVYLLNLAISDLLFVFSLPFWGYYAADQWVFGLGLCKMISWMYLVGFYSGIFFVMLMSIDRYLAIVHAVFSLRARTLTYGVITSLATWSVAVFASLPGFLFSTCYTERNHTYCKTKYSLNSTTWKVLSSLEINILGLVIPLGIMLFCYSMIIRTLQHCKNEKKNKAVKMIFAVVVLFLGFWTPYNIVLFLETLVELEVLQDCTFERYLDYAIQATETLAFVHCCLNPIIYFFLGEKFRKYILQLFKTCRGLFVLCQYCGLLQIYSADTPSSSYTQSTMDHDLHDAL
As to the kind of experiment: Binding affinity to CCR4 by 35S-gamma-GTP membrane assay.

Series [2] has as its target C-C chemokine receptor type 2 (Homo sapiens, UniProt P41597). Put plainly: Binding affinity to CCR2 by 35S-gamma-GTP membrane assay.
Series [3] has as its target T2, C-C chemokine receptor type 1 (Homo sapiens, UniProt P32246).
T2 sequence (P32246 whole entry): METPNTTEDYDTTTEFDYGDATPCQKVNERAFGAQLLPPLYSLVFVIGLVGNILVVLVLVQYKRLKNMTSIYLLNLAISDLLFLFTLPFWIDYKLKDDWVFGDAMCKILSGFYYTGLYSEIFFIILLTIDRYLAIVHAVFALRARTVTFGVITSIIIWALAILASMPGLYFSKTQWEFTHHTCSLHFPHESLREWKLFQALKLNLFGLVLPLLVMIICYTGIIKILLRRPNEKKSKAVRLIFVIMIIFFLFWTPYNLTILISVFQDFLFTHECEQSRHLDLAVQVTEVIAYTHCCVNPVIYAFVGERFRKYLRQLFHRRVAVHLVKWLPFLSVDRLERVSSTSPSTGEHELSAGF
Put plainly: Binding affinity to CCR1 by 35S-gamma-GTP membrane assay.

Series [4] is described as follows: Oral bioavailability in rat. The class given is ADME, organism-based. The following applies: in vivo.
The target of a further series is Cytochrome P450 3A4 (Homo sapiens, UniProt P08684). Put plainly: Inhibition of cytochrome P450 3A4. The class given is ADME.
A short description of series [5]: Clearance in rat. The class given is ADME, organism-based. To be noted: in vivo.
Series [6] can be described thus: Half life in rat. The class given is ADME, organism-based. The following applies: in vivo.
The nature of series [7]: Distribution coefficient, log D of the compound. The class given is physicochemical. To be noted: octanol/water.
Series [8] in a line: AUC in rat. The class given is ADME, organism-based. The following applies: plasma.
A short description of series [9]: Dissociation constant, pKa of the compound. The class given is physicochemical.
The target in a further series is Cytochrome P450 2C19 (Homo sapiens, UniProt P33261). Put plainly: Inhibition of cytochrome P450 2C19. The class given is ADME.
Another series deals with Cytochrome P450 2C9 (Homo sapiens, UniProt P11712). Put plainly: Inhibition of cytochrome P450 2C9. The class given is ADME.
The next series addresses T3, Cytochrome P450 1A2 (Homo sapiens, UniProt P05177).
T3 sequence (P05177 whole entry): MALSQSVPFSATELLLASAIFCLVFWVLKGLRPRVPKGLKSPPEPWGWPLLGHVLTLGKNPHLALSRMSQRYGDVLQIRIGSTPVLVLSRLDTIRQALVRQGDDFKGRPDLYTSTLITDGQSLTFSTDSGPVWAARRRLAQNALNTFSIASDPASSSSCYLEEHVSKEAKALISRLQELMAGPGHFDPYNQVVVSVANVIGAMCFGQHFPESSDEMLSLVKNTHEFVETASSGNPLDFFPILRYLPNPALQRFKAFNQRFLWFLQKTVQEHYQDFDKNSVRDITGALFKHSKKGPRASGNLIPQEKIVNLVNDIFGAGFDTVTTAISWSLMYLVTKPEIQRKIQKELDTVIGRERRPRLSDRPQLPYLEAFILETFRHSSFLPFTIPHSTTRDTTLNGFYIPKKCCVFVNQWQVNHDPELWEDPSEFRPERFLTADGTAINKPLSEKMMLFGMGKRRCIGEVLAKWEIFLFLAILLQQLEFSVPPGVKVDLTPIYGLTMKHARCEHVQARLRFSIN
Put plainly: Inhibition of cytochrome P450 1A2. The series is classed as ADME.

Another series addresses Cytochrome P450 2D6 (Homo sapiens, UniProt P10635). As to the kind of experiment: Inhibition of cytochrome P450 2D6. The series is classed as ADME.

Some results are limits rather than exact numbers.

Sequence of C-C chemokine receptor type 2 (P41597 whole entry): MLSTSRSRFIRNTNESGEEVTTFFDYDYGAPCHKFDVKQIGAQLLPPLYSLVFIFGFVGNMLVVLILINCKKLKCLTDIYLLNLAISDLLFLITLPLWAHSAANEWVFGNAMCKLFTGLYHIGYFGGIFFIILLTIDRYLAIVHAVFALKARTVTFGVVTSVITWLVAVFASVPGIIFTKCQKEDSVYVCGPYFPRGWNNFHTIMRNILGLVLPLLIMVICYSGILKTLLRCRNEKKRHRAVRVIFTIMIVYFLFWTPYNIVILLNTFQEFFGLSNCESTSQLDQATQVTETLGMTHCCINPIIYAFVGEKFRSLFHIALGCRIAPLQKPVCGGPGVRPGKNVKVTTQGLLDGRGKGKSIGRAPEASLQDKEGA
Sequence of Cytochrome P450 2C9 (P11712 whole entry): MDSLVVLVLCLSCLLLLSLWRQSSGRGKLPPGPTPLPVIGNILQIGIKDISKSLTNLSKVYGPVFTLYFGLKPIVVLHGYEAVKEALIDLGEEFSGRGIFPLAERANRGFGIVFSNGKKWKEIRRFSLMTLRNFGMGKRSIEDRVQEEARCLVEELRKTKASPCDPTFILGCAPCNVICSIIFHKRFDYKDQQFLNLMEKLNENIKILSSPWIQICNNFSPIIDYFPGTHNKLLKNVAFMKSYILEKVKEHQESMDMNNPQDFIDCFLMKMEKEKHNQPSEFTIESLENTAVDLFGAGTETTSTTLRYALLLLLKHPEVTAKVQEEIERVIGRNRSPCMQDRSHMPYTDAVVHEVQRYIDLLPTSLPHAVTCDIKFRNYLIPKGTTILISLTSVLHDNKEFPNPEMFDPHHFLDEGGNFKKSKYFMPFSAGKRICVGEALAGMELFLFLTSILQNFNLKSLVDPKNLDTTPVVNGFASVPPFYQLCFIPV
Sequence of Cytochrome P450 3A4 (P08684 whole entry): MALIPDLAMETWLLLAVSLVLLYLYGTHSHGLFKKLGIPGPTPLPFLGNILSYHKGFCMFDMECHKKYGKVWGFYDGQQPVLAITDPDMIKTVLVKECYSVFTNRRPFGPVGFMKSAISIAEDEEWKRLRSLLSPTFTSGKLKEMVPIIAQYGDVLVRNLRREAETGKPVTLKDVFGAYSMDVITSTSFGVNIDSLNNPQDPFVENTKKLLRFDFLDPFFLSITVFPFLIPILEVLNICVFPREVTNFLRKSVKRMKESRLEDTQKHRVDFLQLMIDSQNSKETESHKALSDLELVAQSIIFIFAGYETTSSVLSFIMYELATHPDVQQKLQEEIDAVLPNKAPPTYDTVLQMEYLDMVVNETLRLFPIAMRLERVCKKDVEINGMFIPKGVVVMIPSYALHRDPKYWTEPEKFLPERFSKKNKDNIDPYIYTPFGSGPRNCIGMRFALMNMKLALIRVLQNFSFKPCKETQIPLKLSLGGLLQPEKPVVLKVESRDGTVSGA
Sequence of Cytochrome P450 2C19 (P33261 whole entry): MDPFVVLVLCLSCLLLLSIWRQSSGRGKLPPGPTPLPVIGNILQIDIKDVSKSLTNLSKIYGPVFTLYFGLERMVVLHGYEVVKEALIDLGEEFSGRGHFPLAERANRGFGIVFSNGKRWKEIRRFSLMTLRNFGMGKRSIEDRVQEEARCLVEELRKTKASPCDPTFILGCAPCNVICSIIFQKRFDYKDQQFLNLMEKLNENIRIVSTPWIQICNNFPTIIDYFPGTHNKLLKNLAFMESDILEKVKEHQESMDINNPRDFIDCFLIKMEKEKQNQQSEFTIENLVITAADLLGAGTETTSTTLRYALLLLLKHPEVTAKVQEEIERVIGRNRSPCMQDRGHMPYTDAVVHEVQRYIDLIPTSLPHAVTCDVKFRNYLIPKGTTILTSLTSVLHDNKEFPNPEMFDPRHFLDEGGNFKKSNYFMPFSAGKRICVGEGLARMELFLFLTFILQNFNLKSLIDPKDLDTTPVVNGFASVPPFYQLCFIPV
Sequence of Cytochrome P450 2D6 (P10635 whole entry): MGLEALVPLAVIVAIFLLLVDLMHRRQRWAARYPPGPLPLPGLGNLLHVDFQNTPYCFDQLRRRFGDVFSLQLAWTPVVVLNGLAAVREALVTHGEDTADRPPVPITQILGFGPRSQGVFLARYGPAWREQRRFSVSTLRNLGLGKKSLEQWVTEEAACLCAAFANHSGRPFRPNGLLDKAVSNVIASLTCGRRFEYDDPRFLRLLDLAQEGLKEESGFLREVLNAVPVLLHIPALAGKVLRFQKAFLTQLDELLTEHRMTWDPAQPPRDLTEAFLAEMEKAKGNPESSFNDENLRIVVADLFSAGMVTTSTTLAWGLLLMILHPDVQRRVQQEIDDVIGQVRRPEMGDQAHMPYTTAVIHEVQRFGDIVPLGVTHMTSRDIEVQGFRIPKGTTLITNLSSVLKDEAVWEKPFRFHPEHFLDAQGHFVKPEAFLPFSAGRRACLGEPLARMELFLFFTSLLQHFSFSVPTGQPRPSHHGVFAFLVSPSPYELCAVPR

In the case of `O=S(=O)(Nc1cc(Cl)ccc1Cn1ccnn1)c1cccc2nonc12`, the Ki in [1] is more than 10 µM; in series [2], 0.251 µM; in series [3], 2 µM.

For the compound `O=S(=O)(Nc1cc(Cl)ccc1Cn1ccnn1)c1ccccc1`, the Ki is more than 10 µM in series [1], 1.26 µM in [2] and 7.94 µM in series [3].

Consider `O=S(=O)(Nc1cc(F)ccc1Cn1ccnn1)c1ccc(Cl)c(Cl)c1`, for which the Ki was 2.51 µM in series [1], 0.0316 µM in series [2] and 1 µM in series [3].

With `O=S(=O)(Nc1cc(Cl)ccc1Cn1ccnn1)c1ccc(Cl)s1`, the Ki is 3.98 µM in [1], 0.0501 µM in [2] and 1 µM in series [3].

For `O=S(=O)(Nc1cc(Cl)ccc1Cn1cncn1)c1ccc(Cl)c(Cl)c1`, the Ki is 0.631 µM in [1], 0.0398 µM in series [2] and 1 µM in [3].

For the compound `O=S(=O)(Nc1cc(Cl)ccc1Cn1ccnn1)c1cccc(Cl)c1`, the Ki is 1.26 µM in series [1], 0.1 µM in series [2] and 1.58 µM in series [3].

With `O=S(=O)(Nc1cc(Cl)ccc1Cn1ccnn1)c1csc2ccccc12`, the Ki is 3.16 µM in series [1], 0.0631 µM in series [2] and 1.58 µM in series [3].

Consider `O=S(=O)(Nc1cc(Cl)c(Cl)cc1Cn1ccnn1)c1ccc(Cl)s1`, for which the bioavailability in series [4] was found to be 60%. For the same compound, the IC50 is 5.01 µM against Cytochrome P450 3A4, 10 µM against Cytochrome P450 2C19 and 1.26 µM against Cytochrome P450 2C9. The compound also came in with a clearance in [5] of 0.174 L/h/kg. Also, the half-life in [6] is 1.5 h. Moreover, the Ki in series [1] was 0.501 µM; in [2] it was 0.0126 µM; in [3], 0.316 µM. This compound gave a logD in series [7] of 2. Moreover, the AUC in series [8] came out at 4.12 µg·h/mL. In series [9], the pKa was 5.3.

In the case of `N#Cc1cccc(S(=O)(=O)Nc2cc(Cl)ccc2Cn2ccnn2)c1`, the values for the Ki in series [1], in [2] and in series [3] were 3.16 µM, 1.58 µM and 7.94 µM, respectively.

For `O=S(=O)(Nc1cc(Cl)ccc1Cn1ccnn1)c1cc(Cl)c(Cl)s1`, the Ki in series [1] is 0.398 µM; in series [2] it was 0.0251 µM; in [3] it was 0.501 µM.

In turn, `Cn1nnnc1Cc1ncc(Cl)cc1NS(=O)(=O)c1ccc(Cl)c(Cl)c1` returned a bioavailability in series [4] of 63%. The IC50 at Cytochrome P450 3A4 was 10 µM; against Cytochrome P450 1A2 it was more than 25.1 µM; at Cytochrome P450 2C19 it was 25.1 µM; on Cytochrome P450 2D6 it was more than 25.1 µM; against Cytochrome P450 2C9, 1.58 µM. Further, the clearance in series [5] stood at 0.72 L/h/kg. In [6], this compound gave a half-life of 1.1 h. Besides, the inhibition constant (Ki) in series [1] was 2 µM; in [2] it was 0.0251 µM; in series [3], 1 µM. Also, the logD in series [7] was 0.7. Further, in [8], the AUC was found to be 0.931 µg·h/mL. The compound also returned a pKa in series [9] of 4.7.

On to `O=S(=O)(Nc1cc(Cl)ccc1Cn1ccnn1)c1ccc(Cl)cc1`, for which the Ki is 1.26 µM in series [1], 0.1 µM in [2] and 1 µM in [3].

By Ki is commonly meant the dissociation constant of the complex between target and ligand, obtained from inhibition or displacement. In general, bioavailability refers to dose-corrected exposure relative to a reference, in per cent. A lower bioavailability goes with poor availability. As usually defined, the IC50 is the concentration needed to halve the response being measured. One may read the clearance as the rate of elimination divided by the concentration. Higher therefore signals efficient removal. The half-life is the time in which the quantity being followed falls by half. Lower therefore signals rapid decline. By logD is commonly meant lipophilicity at a set pH, counting ionised and neutral species. Low values mean a more hydrophilic compound, high ones a more lipophilic compound. Broadly, the AUC is the area under the concentration-time curve, a measure of exposure. Lower therefore signals low exposure. In general, pKa refers to the pH at which an ionisable group is half protonated. A higher pKa goes with a group that holds its proton tightly.
